Values quoted from earlier work as cited in US10543256B2, “Stable pharmaceutical formulation comprising a reconstituted pulmonary surfactant composition” (CHIESI FARMACEUTICI S.P.A., priority 2016, dated 2020).

Settings: at 25° C.

## Cl.NC(CO)(CO)CO [TRIS, Tris(hydroxymethyl)aminomethane hydrochloride]
  pKa: 8.06
